Reference: patent US12304909B2, “Compounds and their use in therapy” (IMPERIAL COLLEGE INNOVATIONS LIMITED, priority 2018, dated 2025)
Where “and” joins values, the source holds several entries; their conditions need not be identical. Equal entries are not always repeated. Where two headings read alike, the source gives them in different places.

Legend:
human NMT1 (HsNMT1) = target: T1, human NMT1 (HsNMT1) (Homo sapiens, UniProt P30419); assay: HsNMT1 IC50, fluorescence-based assay detecting CoA with CPM; format: biochemical
T1 sequence (P30419 1-496): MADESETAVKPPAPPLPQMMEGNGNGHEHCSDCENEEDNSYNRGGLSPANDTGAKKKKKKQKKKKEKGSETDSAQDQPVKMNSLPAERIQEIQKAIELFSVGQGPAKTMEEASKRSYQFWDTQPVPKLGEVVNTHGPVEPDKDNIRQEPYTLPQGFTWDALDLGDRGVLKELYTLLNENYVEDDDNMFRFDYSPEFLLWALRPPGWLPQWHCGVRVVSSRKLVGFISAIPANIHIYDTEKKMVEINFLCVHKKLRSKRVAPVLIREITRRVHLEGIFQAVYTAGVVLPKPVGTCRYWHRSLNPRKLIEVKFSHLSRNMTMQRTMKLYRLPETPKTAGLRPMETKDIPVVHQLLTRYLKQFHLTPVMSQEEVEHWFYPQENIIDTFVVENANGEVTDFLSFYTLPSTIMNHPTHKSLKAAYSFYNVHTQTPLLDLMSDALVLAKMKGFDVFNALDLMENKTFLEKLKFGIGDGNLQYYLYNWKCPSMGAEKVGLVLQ
Experimental: The IC50 values for human NMT1 (HsNMT1) of four Example compounds of the invention described above (Examples 1-4) and six comparative examples (Comparative Examples 1, 2, 3, 4, 5 and 6) were measured using a sensitive fluorescence-based assay based on detection of CoA by 7-diethylamino-3-(4-maleimido-phenyl)-4-methylcoumarin, as described in Goncalves, V., et al., Analytical Biochemistry, 2012, 421, 342-344 and Goncalves, V., et al., J. Med. Chem, 2012, 55, 3578.

MDA MB 231 cells = assay: CellTiter-Blue assay, MDA MB 231; format: cell-based, human
Experimental: (§1) Example NMT inhibitors of the present invention were tested for activity in in vitro CellTiter-Blue® assays using the human cell line MDA MB 231, LY 12318, or BL-41. Comparative Examples 1 and 2 were also tested in the same assays. Compounds having activity in inhibiting metabolic activity in the assay are expected to be useful as agents for preventing and/or treating cancer, by virtue of being inhibitors of human NMT1 and/or NMT2.
(§2) MDA MB 231 cells (obtained from Professor Eric Aboagye, Hammersmith Hospital; cell type: triple negative breast cancer) were grown in low glucose DMEM in 5% CO2 media (supplemented with 10% FBS); LY 12318 cells (obtained from Dr Martin Janz, Max Delbrueck Center; cell type: B cell lymphoma patient derived xenograft) were grown in DMEM media (supplemented with 10% FBS); and BL-41 cells (obtained from Cell Services at the Crick Institute; cell type: Burkitt's Lymphoma) were grown in RPMI-1640 media in 5% CO2 (supplemented with 10% FBS). The MDA MB 231 cells, LY 12318 cells or BL-41 cells were seeded in 96-well plates, 24 h prior to treatment. Cell suspensions were prepared by adjusting the cell density to the appropriate concentration (as stated in the Table 2 below) and 50 μL of the cell suspension was transferred to wells B-G in columns 2-11 of a 96-well plate.
(§3) Twenty-four hours later, 50 μl of growth media (low glucose DMEM in 5% CO2 media supplemented with 10% FBS for MDA MB 231 cells; DMEM media in 5% CO2 supplemented with 10% FBS for LY 12318 cells; or RPMI-1640 media supplemented with 10% FBS for BL-41 cells) containing 0.0004% DMSO (positive control), a mix of Puromycin and Staurosporine (negative controls, final concentration 2 μg/mL and 1 μM respectively) or different concentrations of each Example (Example 1 and 2) or each Comparative Example (Comparative Example 1 and 2) (dilution factor=3, starting at […], final concentration in the plate starting from 10 μM) were prepared and added to a well of the 96-well plate. The plate was incubated at 37° C. with 5% CO2 level.
(§4) 72 hours later, 20 μl/well CellTiter-Blue® (G8081, Promega) were added to the plates according to the manufacturer's protocol, the plate was incubated at 37° C. for 4 h for MDA MB 231 cells and BL-41 cells, or 3 h for LY 12318 cells, followed by measuring the absorbance per well at 570 nm using an EnVision plate reader. The negative control values were subtracted from every value. The metabolic activity was calculated as a percentage relative to the positive control. The EC50 values were calculated using GraphPad Prism.

LY 12318 cells = assay: CellTiter-Blue assay, LY 12318; format: cell-based, human; conditions: 72 h, read-out: LY12318 EC50
Experimental: as §1, §2, §3, §4

BL-41 cells = assay: CellTiter-Blue assay, BL-41; format: cell-based, human
Experimental: as §1, §2, §3, §4

[1] = Human liver microsomes half life; format: in vitro ADME; conditions: pH 7.4, read-out: Human liver microsomes t ½
Experimental: Example Compound 1 was tested for metabolic stability in an assay using human liver microsomes. Comparative Examples 2, 3, 4, 5 and 6 were also tested in the same assay. Compounds having good metabolic stability in the assay are expected to be especially useful as agents for preventing and/or treating cancer, by having a long half-life in human patients
Frozen human liver microsomes obtained from Corning, USA (cat #452117) were thawed and diluted with 100 mM of pH 7.4 phosphate buffer to give a 1 mg/ml solution. An NADPH regeneration system (NRS) was prepared as a solution containing 13 mM NADP, 33 mM glucose-6-phosphate, 33 mM MgCl2 and 4U/mL glucose-6-phosphate dehydrogenase in 100 mM of pH7.4 phosphate buffer. The test compound (4 mM) in DMSO was diluted with acetonitrile to provide a 100 μM sub-stock then further diluted with 100 mM of pH7.4 phosphate buffer to provide a 2 μM working solution. The liver microsome solution and NRS were incubated at 37° C. before use. To each well of the test plate was dispensed 60 μL of buffer, 50 μL of test compound solution and 10 μL of NRS. A reaction was initiated by addition of 40 μL of liver microsome solution. Wells were incubated for an appropriate time (0, 5, 10, 20, 30 and 60 min) then quenched with 300 μL of acetonitrile containing reference standards atenolol, propranolol, diclofenac, verapamil). All plates were centrifuged at 3500 rpm for 20 min at 15° C. to pellet the debris. 110 μL supernatant was diluted 110 μL water and quantitated using LC-MS/MS.
The results were used to calculate the % Remaining of the test compound at time point t=100×˜[(AUC at time point t)/(AUC at T=0)]. A linear regression curve was fitted to a plot of natural logarithm (In) of AUC against time. The T-half (min)=0.693/slope.

Compound | IC50 (human NMT1 (HsNMT1)) | EC50 (MDA MB 231 cells; Homo sapiens, MDA-MB-231, 72 h) [nM] | EC50 (LY 12318 cells; Homo sapiens) [nM] | EC50 (BL-41 cells; Homo sapiens, BL-41, 72 h) [nM] | half-life at 0.625 µM [1] [h] | EC50 (MDA MB 231 cells; 72 h) [nM] | EC50 (LY 12318 cells) [nM] | EC50 (BL-41 cells; 72 h) [nM]
CNC(=O)c1nn(C)c(C)c1CCOc1cc(F)ccc1-c1ccc2ncc(CCN)n2c1 [Comparative Example 2, 4-(2-{2-[3-(2-aminoethyl)imidazo[1,2-a]pyridin-6-yl]-5-fluorophenoxy}ethyl)-N,1,5-trimethyl-1H-pyrazole-3-carboxamide] | ~1 nM and 1 nM | 237 | > 370 | 298 | 1.95 | – | – | –
Cc1c(CCOc2cc(Cl)ccc2-c2ccc3ncc(CCN)n3c2)c(C(=O)N(C)C)nn1C [Example Compound 1, 4-(2-{2-[3-(2-aminoethyl)imidazo[1,2-a]pyridin-6-yl]-5-chlorophenoxy}ethyl)-N,N,1,5-tetramethyl-1H-pyrazole-3-carboxamide] | – | – | – | – | 1.12 | 20 | 27 | 14
CNCCc1cnc2ccc(-c3ccc(F)cc3OCCc3c(C)nn(C)c3C)cn12 [Comparative Example 3, [2-(6-{4-fluoro-2-[2-(1,3,5-trimethyl-1H-pyrazol-4-yl)ethoxy]phenyl}imidazo[1,2-a]pyridin-3-yl)ethyl](methyl)amine] | 10.5 nM | – | – | – | 0.617 | – | – | –
